In this test the test system is MDA-MB-468 breast. Kind of test: NCI tumour cell line growth inhibition, 48 h.

The record followed here is PubChem BioAssay (NCI).

Values joined by “and” are separate entries in the source; they are usually repeats but may differ in a detail not shown here. Identical values can stand only once.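 96-well plates; 48 h exposure; 5 concentrations. Endpoints by linear interpolation between flanking doses. Not reached: highest tested concentration assigned. GI50 marks 50% less growth. TGI denotes the concentration required for complete inhibition of growth.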 *1 amine or outer side, *2 acyl side, *3 side chain or, on linkers, in order; H or OH if unused. Where a SMILES comes first, the peptide text is derived from it. Bridges are numbered along the chain shown (N, C = ends). [ ]: non-standard residue; d: D form. The star is where a group is joined. Phe(3-Me) = Cc1cccc(C[C@H](N)C(=O)O)c1; NH(4-Cl-2-F-phenyl) = Fc1cc(Cl)ccc1N*; Pro(4R-Me) = C[C@H]1CN[C@H](C(=O)O)C1; Hyp = O=C(O)[C@@H]1C[C@@H](O)CN1; aThr = C[C@H](O)[C@H](N)C(=O)O; Pip = O=C(O)[C@@H]1CCCCN1; CO = O=C([*:1])[*:2]

Regarding `O=C(c1cc(-c2cc3c(cc2C(=O)N2Cc4ccccc4C[C@H]2CN2CCOCC2)OCO3)n2c1CCCC2)N(c1ccccc1)c1ccc(O)cc1`, the GI50 was 3.07 µM and the TGI worked out at 96.2 µM. For the compound `CN1CCN(Cc2ccc(NC(=O)c3[nH]ncc3Nc3ncnc4c3CCC4)cc2)CC1`, the GI50 was 2 µM and the TGI turned out to be 5.84 µM.

For `CN(C)CC#Cc1cccc(C(=O)c2cnn(-c3ccc(F)cc3)c2N)c1`, the GI50 is 13.3 µM and the TGI is more than 25 µM. Take `COc1ccc(C2c3cc4c(cc3OC(N3CCOCC3)C2C)OCO4)c(OC)c1` (centres undefined): the GI50 is 7.18 µM and the TGI was 32 µM. In the same order, the values of `CCS(=O)(=O)c1ccc(OC)c(Nc2nccc(N(C)c3ccc4c(C)[nH]nc4c3)n2)c1` are 3.48 µM and 9.32 µM. For the compound `Cc1ccc(C(=O)N/N=C/c2cccc(Oc3ccccc3)c2)cn1`, the GI50 is 4.43 µM and the TGI was more than 34.9 µM. Regarding `Cn1c2ccccc2c2nnc(N/N=C/c3ccccn3)nc21`, the GI50 was 0.293 µM. Consider `CSc1ccc(/C(=N/N=C(N)N)c2ccc(F)cc2)cc1`, for which the GI50 is 0.398 µM and the TGI was determined as 2.13 µM. As for `N#CSCC1CC(O)(c2ccccc2)C(c2ccccc2)C(c2ccc(F)cc2)O1` (centres undefined), the GI50 is 3.51 µM and the TGI was determined as 13.1 µM. The matching figures for `O=C(O)c1ccc(NS(=O)(=O)c2cccc3cccnc23)cc1`: more than 100 µM and more than 100 µM. The matching figures for `COc1ccc(/C=C(\C#N)c2cc(OC)c3c(c2)OCO3)cc1`: 0.0173 µM and 0.15 µM. In the same order, the values of `O=C1Nc2cc(OC(F)(F)F)ccc2Oc2ccc(-c3ccnc(N4CCNCC4)c3)cc21` are 0.394 µM and 1.46 µM. Regarding `Cc1c(CN2CCC(Nc3ncnc4sc(CC(F)(F)F)cc34)CC2)ccc2c1cc(C#N)n2Cc1cn[nH]c1`, the GI50 is 0.842 µM and 0.781 µM; the TGI is 3.82 µM and 6.25 µM. With `CO/N=C1/NC(=O)/C(=C/c2ccc3ncccc3c2)S1`, the GI50 was 4.91 µM and the TGI was more than 25 µM.

For `Cc1c(Cl)cccc1NC(=O)c1sc2nc3c(cc2c1N)CCCCCC3`, the GI50 was 0.13 µM and the TGI was 19.9 µM. For the compound `CCOc1cc2ncc(C#N)c(Nc3ccc(F)c(Cl)c3)c2cc1NC(=O)/C=C/CN(C)C`, the GI50 is 0.00238 µM and the TGI stood at 0.0351 µM. In the case of `O=C(N/N=C/c1ccc(O)cc1O)c1ccc(Nc2ccnc(C(F)(F)F)c2)cc1`, the GI50 was 15.2 µM and the TGI is more than 100 µM. In the same order, the values of `CCC(C)/C=C(C)/C=C/C(=O)c1c(O)c(-c2ccc(O)cc2)c[nH]c1=O` (centres undefined) are 1.87 µM and 7.76 µM. The matching figures for `Cc1nc(NC(=S)Nc2ccc(F)cc2)sc1C(=O)NNC(=S)Nc1ccc(F)cc1`: 2.22 µM and 9.53 µM. Consider `Cc1cccc(C[C@H](NC(=O)Nc2ccc(Cl)cc2F)C(=O)N[C@@H]2C(=O)N3C[C@H](O)C[C@H]3C(=O)N3CCCC[C@H]3C(=O)N[C@@H](C)C(=O)N3C[C@H](C)C[C@H]3C(=O)O[C@H]2C)c1` ({NH(4-Cl-2-F-phenyl)-CO}-[Phe(3-Me)][aThr][Hyp][Pip]A[Pro(4R-Me)]; ester 2-C), for which the GI50 is 0.253 µM and the TGI was found to be 1.03 µM.

Consider `O=C(CNC(=O)c1cccc2ccccc12)Nc1ccccc1Oc1ccccc1`, for which the GI50 was 0.325 µM and the TGI came to 5.9 µM. With `O=C1CNc2cc(N3CCN(c4cccc(C(F)(F)F)c4)CC3)ccc2N1`, the GI50 is 4.92 µM and the TGI amounted to 43.6 µM. The matching figures for `COc1ccc(C2=C(c3cn(C)c4ccccc34)C(=O)NC2=O)cc1OC`: 5.86 µM and more than 25 µM. In the same order, the values of `O=[N+]([O-])c1cc(Br)cc2c1[nH]c1ccc(Br)cc12` are 7.52 µM and 79.7 µM. With `Cc1cc2c(C(N)=O)cccc2n1-c1nc2c(c(NCc3ccccc3)n1)CCCN2`, the GI50 was 0.223 µM and the TGI was 0.477 µM.
